# Results as given in paper PMC11869560, “Anticancer and cancer preventive activities of shogaol and curcumin from Zingiberaceae family plants in KG-1a leukemic stem cells” (BMC Complementary Medicine and Therapies, 2025).
# Where two headings read alike, the source gives them in different places.
# How the values were obtained:
# [1] = system: TAZ protein expression in KG-1a cells; assay: TAZ protein expression in KG-1a cells by Western blotting; type: cell-based, human; details: IC50 concentrations, 0–12 h
# Method: (§1) KG-1a cells (1.5 × 10^5 cells/mL) were treated with compounds or extracts at different incubation times. Then, the cells were harvested and the whole proteins were extracted using a RIPA buffer (25 mM Tris-base, pH 7.6, 0.1% SDS, 1% Triton X-100, 150 mM NaCl, and 1 mM EDTA). The protein concentration was measured using the Folin-Lowry or Bradford assay. The whole protein lysates (30 µg/lane) were then separated through 7.5% SDS-PAGE under reducing conditions and then transferred to PVDF membranes. The membranes were blocked in 5% skim milk in PBS, pH 7.4 at RT for 2 h, then, target proteins were probed with specific primary antibodies (anti-WT1, anti-CD34, anti-GAPDH, anti-cleaved caspase-3, anti-cleaved PARP, anti-phospho-Akt, anti-phospho-c-Jun, anti-phospho-SAPK/JNK, and anti-YAP/TAZ) indicated in Table S10 which diluted at a ratio of 1:1,000 in PBS, pH 7.4 at RT for 2 h. After incubation, the membranes were rinsed 6 times with 0.1% Tween-20 (Sigma-Aldrich, MA, USA) in PBS, pH 7.4 (PBS-T), each time for 5 min. […] Finally, the protein band signal was quantified by using a scan densitometer (Bio-Rad Laboratories, CA, USA).
# KG-1a cells [2] = assay: Cell death analysis by PI staining and flow cytometry in KG-1a cells; type: cell-based, human; details: nocodazole 5–120 ng/mL, shogaol 6–9 µg/mL, curcumin various concentrations; time course
# Method: Additionally, PI staining was used to investigate the cytotoxicity of the active compounds. KG-1a cells after exposure to the active compounds with various concentration were harvested at different incubation times and washed with ice-cold PBS, pH 7.4 for 2 times. Then, the cells were resuspended with PI in PBS, pH 7.4 at a ratio of 1:10,000. The percentage of dead cells was detected by flow cytometry (CytoFLEX S, Beckman Coulter, CA, USA) and analyzed by CytExpert program (Beckman Coulter, CA, USA).
# RAW264.7 cells = assay: Cytotoxicity (IC20, cell viability) in RAW264.7 cells; type: cell-based; details: Mus musculus, RAW264.7; incubation for 48 h; read-out: IC20 RAW264.7 (inhibitory concentration at 20% growth)
# Method: MTT (3-(4,5-dimethylthiazol-2-yl)-2,5-diphenyltetrazolium bromide) assay was used to investigate the cytotoxicity of the test samples. […] After that, 5 mg/mL of MTT dye solution (Sigma-Aldrich, MA, USA) was added and incubated for 4 h. The produced formazan crystals were dissolved in 200 μL of DMSO (Sigma-Aldrich, MA, USA); then, the optical density (OD) was measured using an ELISA plate reader ([…], Taiwan) at 578 nm with a reference wavelength of 630 nm. The percentage of surviving cells was calculated from the absorbance values of the test and control wells using the following Equation. 1 [drawing 1] […] Afterward, supernatants were collected, and the levels of TNF-α and NO were measured using the Mouse TNF alpha Uncoated ELISA Kit (InvitrogenTM, ThermoFisher Scientific, MA, USA) and the Total Nitric Oxide Assay Kit (InvitrogenTM, ThermoFisher Scientific, MA, USA), respectively, according to the manufacturer's instructions.
# [3] = system: p-c-Jun and p-SAPK/JNK in KG-1a cells; assay: p-c-Jun and p-SAPK/JNK in KG-1a cells by Western blotting; type: cell-based, human; details: IC50 concentration, 6 h
# Method: as §1, with “USA). […]” for “USA).”
# [4] = system: p-Akt (S473) in KG-1a cells; assay: p-Akt (S473) in KG-1a cells by Western blotting; type: cell-based, human; details: IC50 concentration, 6 h
# Method: as §1, with “USA). […]” for “USA).”
# [5] = system: WT1 protein expression in KG-1a cells; assay: WT1 protein expression in KG-1a cells by Western blotting; type: cell-based, human
# Method: KG-1a cells (1.5 × 10^5 cells/mL) were treated with compounds or extracts at different incubation times. Then, the cells were harvested and the whole proteins were extracted using a RIPA buffer (25 mM Tris-base, pH 7.6, 0.1% SDS, 1% Triton X-100, 150 mM NaCl, and 1 mM EDTA). The protein concentration was measured using the Folin-Lowry or Bradford assay. The whole protein lysates (30 µg/lane) were then separated through 7.5% SDS-PAGE under reducing conditions and then transferred to PVDF membranes. The membranes were blocked in 5% skim milk in PBS, pH 7.4 at RT for 2 h, then, target proteins were probed with specific primary antibodies (anti-WT1, anti-CD34, anti-GAPDH, anti-cleaved caspase-3, anti-cleaved PARP, anti-phospho-Akt, anti-phospho-c-Jun, anti-phospho-SAPK/JNK, and anti-YAP/TAZ) indicated in Table S10 which diluted at a ratio of 1:1,000 in PBS, pH 7.4 at RT for 2 h. After incubation, the membranes were rinsed 6 times with 0.1% Tween-20 (Sigma-Aldrich, MA, USA) in PBS, pH 7.4 (PBS-T), each time for 5 min. The reaction was followed by HRP-conjugated secondary antibody at 1:20,000 dilution in PBS, pH 7.4 at RT for 2 h, then, the membranes were rinsed 6 times for 5 min each with PBS-T. The proteins were shown using Immobilon Forte Western HRP substrate (Millipore, MA, USA). Finally, the protein band signal was quantified by using a scan densitometer (Bio-Rad Laboratories, CA, USA).
# KG-1a cells [6] = assay: MTT cytotoxicity assay in KG-1a cells; type: cell-based, human; details: for IC50 / IC20: Homo sapiens, KG-1a; for IC20: read-out: IC20 KG-1a (inhibitory concentration at 20% growth); for Selectivity index (SI): IC50 for normal cells (PBMCs) / IC50 for cancer cells (KG-1a)
# Method: MTT (3-(4,5-dimethylthiazol-2-yl)-2,5-diphenyltetrazolium bromide) assay was used to investigate the cytotoxicity of the test samples. KG-1a (1.5 × 10^4 cells/well), K562 (1.0 × 10^4 cells/well), PBMCs (1.0 × 10^5 cells/well), A549 (5.0 × 10^3 cells/well), MCF-7 (5.0 × 10^3 cells/well), and HeLa (5.0 × 10^3 cells/well) were seeded into a 96-well plate and incubated overnight at 37 °C with 5% CO2. […] After that, 5 mg/mL of MTT dye solution (Sigma-Aldrich, MA, USA) was added and incubated for 4 h. The produced formazan crystals were dissolved in 200 µL of DMSO (Sigma-Aldrich, MA, USA); then, the optical density (OD) was measured using an ELISA plate reader (Metertech, Taipei, Taiwan) at 578 nm with a reference wavelength of 630 nm. The percentage of surviving cells was calculated from the absorbance values of the test and control wells using the following Equation. 1 [drawing 1]
# where ODsample is a mean absorbance in test well and ODvehicle control is a mean absorbance in VC well. The average percentage of surviving cells at each concentration obtained from triplicate experiments was plotted as a dose-response curve. Inhibitory concentration values at 50% growth (IC50 value) were defined as the lowest concentration of the test sample that inhibited cell growth by 50% compared to the untreated control.
# To calculate IC50 values, a dose-response curve was fitted using non-linear regression analysis, as described in the GraphPad Prism guidelines (https://www.graphpad.com/support/faq/how-to-determine-an-icsub50sub/). The IC50 value was obtained by determining the point at which the curve intersected 50% growth inhibition. Non-linear regression graphs of the dose-response curve for each compound are provided in the supplementary data file (Figs. S1–S8).
# where IC50 N is IC50 for normal cells and IC50 C is IC50 for cancer cells which were treated with the same compounds in both cells.
# [7] = IC20 concentrations, 48 h, normalized to GAPDH
# [8] = 48 h, active compounds and drugs, MTT, 48 h, read-out: IC50 KG-1a
# [9] = Table S7, KG-1a, first replicate, read-out: IC50 value R1
# [10] = Table S7, KG-1a, third replicate, read-out: IC50 value R3
# [11] = active compounds and drugs, MTT, 48 h
SMILES,effect on TAZ protein abundance [1],induction of cell death (PI staining) (KG-1a cells [2]),IC20 (RAW264.7 cells),p-c-Jun and p-SAPK/JNK levels compared to VC [3],p-Akt (S473) level compared to VC [4],"decrease of WT1 protein level compared to VC [5, 7]","decrease of WT1 protein level compared to VC ([5]; IC50 concentration, 3 h)",IC50 (KG-1a cells [6]; [8]),"IC20 (KG-1a cells [6]; 48 h, incubation for 48 h)",IC50 (KG-1a cells [6]; [9]),"IC50 (KG-1a cells [6]; Table S7, KG-1a, mean of R1-R3, read-out: IC50 value Mean)",IC50 (KG-1a cells [6]; [10]),Selectivity index (SI) (KG-1a cells [6]; 48 h),IC50 KG-1a (KG-1a cells [6]; [11]),"decrease of WT1 protein level compared to VC ([5]; IC50 concentration, 6 h)","IC50 (KG-1a cells [6]; Table S7, KG-1a, second replicate, read-out: IC50 value R2)","Selectivity index (SI) (KG-1a cells [6]; 48 h, listed as curcumin)",IC20 KG-1a (inhibitory concentration at 20% growth) (KG-1a cells [6]; incubation for 48 h)
"CCCCC/C=C/C(=O)CCc1ccc(O)c(OC)c1 [Shogaol, shogaol]",no significant change in its abundance was observed,notably induced cell death at 6 h,2.71 ± 0.62 µg/mL,increased,decreased,30.71 ± 3.90%,22.58 ± 3.99%,2.99 ± 0.01 µg/mL,0.12 µg/mL,2.98 µg/mL,2.99 µg/mL,2.99 µg/mL,3.07,3 µg/mL,–,–,–,–
"COc1cc(/C=C/C(=O)CC(=O)/C=C/c2ccc(O)c(OC)c2)ccc1O [Curcumin, curcumin]",no significant change in its abundance was observed,gradually induced cell death after 12 h of incubation,2.08 ± 0.15 µg/mL,increased,decreased,44.05 ± 9.81%,–,10 µg/mL,3.51 ± 0.59 µg/mL,10.4 µg/mL,–,10.6 µg/mL,1.31,10.52 ± 0.12 µg/mL,77.01 ± 8.80%,10.6 µg/mL,greater than 1,3 µg/mL
